From ChEMBL document CHEMBL1201862, “PubChem BioAssay data set” (2004)
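Exposure lasted 48 hours, with cells grown in 96-well plates and compounds tested at five concentrations. GI50: concentration for 50% inhibition of growth.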 Activity calls are given as the source filed them. Rule as the data show it: active = GI50 up to about 1.1 µM and inactive = higher.

Assays:
Assay in all cases: DTP human tumour cell line panel, 48 h
[1] = test system: Hs-578T
[2] = test system: NCI/ADR-RES
[3] = test system: IGROV-1
[4] = test system: COLO 205
[5] = test system: HOP-62
[6] = test system: MDA-MB-435
[7] = test system: SN12C
[8] = test system: U-251
[9] = test system: NCI-H522
[10] = test system: HCT-15
[11] = test system: MDA-N
[12] = test system: OVCAR-3
[13] = test system: MDA-MB-231
[14] = test system: SK-OV-3
[15] = test system: HL-60
[16] = test system: SK-MEL-28
[17] = test system: RPMI-8226
[18] = test system: CCRF-CEM
[19] = test system: SR
[20] = test system: K562

`C=C(Cl)CN1c2ccccc2C=Cc2ccccc21` was tested, and the GI50 [1] was 53.3 µM (inactive), the GI50 [2] was > 100 µM (inactive) and the GI50 [3] was 16.1 µM (inactive). The GI50 [4] was 12.8 µM (inactive), the GI50 [5] was 16.6 µM (inactive) and the GI50 [6] was 14.9 µM (inactive). The GI50 [7] was 20.6 µM (inactive), the GI50 [8] was 10.1 µM (inactive) and the GI50 [9] was 21.6 µM (inactive). For the same compound, the GI50 [10] was greater than 100 µM, the GI50 [11] was 15 µM (inactive) and the GI50 [12] was 15.7 µM (inactive). The GI50 [13] was 14.7 µM (inactive) and the GI50 [14] was 15.9 µM (inactive).

With `CN(C)c1ccc(/C=N/c2nc3cc4sc(/N=C/c5ccc(N(C)C)cc5)nc4cc3s2)cc1` the GI50 [1] was 18.1 µM (inactive), the GI50 [15] was 16.9 µM (inactive) and the GI50 [16] was > 100 µM (inactive). The GI50 [2] was > 100 µM (inactive), the GI50 [3] was > 100 µM (inactive) and the GI50 [4] was 4.75 µM (inactive). The GI50 [5] was 55.7 µM (inactive), the GI50 [6] was 33.7 µM (inactive) and the GI50 [7] was 83.9 µM (inactive). The GI50 [17] was 19.1 µM (inactive), the GI50 [8] was 50.5 µM (inactive) and the GI50 [9] was 9.98 µM (inactive). For the same compound, the GI50 [10] was greater than 100 µM, the GI50 [18] was 6.3 µM (inactive) and the GI50 [19] was 29.4 µM (inactive). For the same compound, the GI50 [12] was 36.9 µM (inactive), the GI50 [13] was > 100 µM (inactive) and the GI50 [20] was 70.1 µM (inactive). The GI50 [14] was 41.8 µM (inactive).

With `COc1ccc(/C=C2\N=C(c3ccccc3)OC2=O)cc1OC(C)=O` the GI50 [1] was 26.3 µM (inactive), the GI50 [15] was 41.1 µM (inactive) and the GI50 [16] was > 100 µM (inactive). For the same compound, the GI50 [2] was > 100 µM (inactive), the GI50 [3] was 82.8 µM (inactive) and the GI50 [4] was > 100 µM (inactive). For the same compound, the GI50 [5] was 94.2 µM (inactive), the GI50 [6] was 51.8 µM (inactive) and the GI50 [7] was > 100 µM (inactive). For the same compound, the GI50 [17] was 32 µM (inactive), the GI50 [8] was 39.8 µM (inactive) and the GI50 [10] was 49.4 µM. The GI50 [18] was 27.7 µM (inactive), the GI50 [19] was 15.2 µM (inactive) and the GI50 [12] was 48.9 µM (inactive). For the same compound, the GI50 [13] was 46.5 µM (inactive), the GI50 [20] was 44.9 µM (inactive) and the GI50 [14] was > 100 µM (inactive).

With `CN(C)C(=S)/N=c1\ssc(=S)n1Cc1ccco1` the GI50 [1] was 0.31 µM (active), the GI50 [15] was 0.379 µM (active) and the GI50 [16] was 8.07 µM (inactive). The GI50 [3] was 11.1 µM (inactive), the GI50 [4] was 2.21 µM (inactive) and the GI50 [5] was 2.56 µM (inactive). For the same compound, the GI50 [6] was 0.274 µM (active), the GI50 [7] was 4.21 µM (inactive) and the GI50 [17] was 1.48 µM (inactive). For the same compound, the GI50 [8] was 1.15 µM (inactive), the GI50 [9] was 0.249 µM (active) and the GI50 [10] was 2.2 µM. The GI50 [18] was 0.975 µM (active), the GI50 [11] was 0.22 µM (active) and the GI50 [19] was 1.97 µM (inactive). For the same compound, the GI50 [12] was 1.15 µM (inactive), the GI50 [13] was 10.4 µM (inactive) and the GI50 [20] was 0.348 µM (active). The GI50 [14] was 1.71 µM (inactive).

With `FC(F)(F)c1ccccc1N1CCN(c2nc(-c3cccs3)nc3ccc(Br)cc23)CC1` the GI50 [1] was 36.5 µM (inactive), the GI50 [15] was 36.4 µM (inactive) and the GI50 [16] was 35.8 µM (inactive). The GI50 [2] was 41.8 µM (inactive), the GI50 [3] was 11.6 µM (inactive) and the GI50 [4] was 23.4 µM (inactive). The GI50 [5] was 50.4 µM (inactive), the GI50 [6] was 23.9 µM (inactive) and the GI50 [7] was 45.8 µM (inactive). The GI50 [17] was 11.2 µM (inactive), the GI50 [8] was 44.4 µM (inactive) and the GI50 [9] was 35 µM (inactive). The GI50 [10] was 7.46 µM, the GI50 [18] was 0.581 µM (active) and the GI50 [19] was 31.6 µM (inactive). The GI50 [12] was 10.9 µM (inactive), the GI50 [13] was 21 µM (inactive) and the GI50 [20] was 63.1 µM (inactive). For the same compound, the GI50 [14] was 57.3 µM (inactive).

In the case of `O=C(O)Cc1nc[nH]c1C(=O)O`, the GI50 [1] is reported as > 100 µM (inactive), the GI50 [15] is reported as > 100 µM (inactive) and the GI50 [16] is reported as > 100 µM (inactive). The GI50 [2] was > 100 µM (inactive), the GI50 [3] was > 100 µM (inactive) and the GI50 [4] was > 100 µM (inactive). For the same compound, the GI50 [5] was > 100 µM (inactive), the GI50 [6] was > 100 µM (inactive) and the GI50 [7] was > 100 µM (inactive). The GI50 [17] was > 100 µM (inactive), the GI50 [8] was > 100 µM (inactive) and the GI50 [9] was > 100 µM (inactive). The GI50 [10] was greater than 100 µM, the GI50 [18] was > 100 µM (inactive) and the GI50 [11] was > 100 µM (inactive). For the same compound, the GI50 [12] was > 100 µM (inactive), the GI50 [13] was > 100 µM (inactive) and the GI50 [20] was > 100 µM (inactive). For the same compound, the GI50 [14] was > 100 µM (inactive).

In the case of `c1csc(-c2ccsc2-c2cccs2)c1`, the GI50 [1] is reported as 52.8 µM (inactive), the GI50 [15] is reported as 30.5 µM (inactive) and the GI50 [2] is reported as 43.3 µM (inactive). For the same compound, the GI50 [3] was > 100 µM (inactive), the GI50 [4] was 52.2 µM (inactive) and the GI50 [5] was > 100 µM (inactive). For the same compound, the GI50 [6] was 24.4 µM (inactive), the GI50 [7] was > 100 µM (inactive) and the GI50 [17] was 16.8 µM (inactive). For the same compound, the GI50 [8] was > 100 µM (inactive), the GI50 [9] was 31.5 µM (inactive) and the GI50 [10] was 31 µM. The GI50 [18] was 76.9 µM (inactive), the GI50 [11] was 35.8 µM (inactive) and the GI50 [19] was 1.18 µM (inactive). For the same compound, the GI50 [12] was > 100 µM (inactive) and the GI50 [14] was > 100 µM (inactive).

`CC1CC/C(=C\c2ccc(F)cc2)C(=O)/C1=C/c1ccc(F)cc1` (stereo not given) was tested, and the GI50 [1] was 6.58 µM (inactive), the GI50 [15] was 3.08 µM (inactive) and the GI50 [16] was 13.2 µM (inactive). For the same compound, the GI50 [2] was 2 µM (inactive), the GI50 [3] was 3.04 µM (inactive) and the GI50 [4] was 5.77 µM (inactive). For the same compound, the GI50 [6] was 4.69 µM (inactive), the GI50 [7] was 3.22 µM (inactive) and the GI50 [17] was 1.61 µM (inactive). For the same compound, the GI50 [8] was 4.95 µM (inactive), the GI50 [10] was 2.34 µM and the GI50 [18] was 3.62 µM (inactive). The GI50 [11] was 3.54 µM (inactive), the GI50 [12] was 5.7 µM (inactive) and the GI50 [13] was 2.66 µM (inactive). The GI50 [20] was 3.76 µM (inactive) and the GI50 [14] was 17.4 µM (inactive).

With `OCC(O)C(O)C(C=NNc1ncnc2ccc(Br)cc12)=NNc1ncnc2ccc(Br)cc12` (stereo not given) the GI50 [1] was 41.9 µM (inactive), the GI50 [15] was 0.325 µM (active) and the GI50 [3] was 1.45 µM (inactive). For the same compound, the GI50 [4] was 0.366 µM (active), the GI50 [5] was 5.12 µM (inactive) and the GI50 [6] was 4.79 µM (inactive). The GI50 [7] was 6.84 µM (inactive), the GI50 [8] was 1.28 µM (inactive) and the GI50 [9] was 0.404 µM (active). The GI50 [11] was 5.06 µM (inactive), the GI50 [19] was 0.579 µM (active) and the GI50 [12] was 0.344 µM (active). The GI50 [13] was 1.26 µM (inactive), the GI50 [20] was 2.58 µM (inactive) and the GI50 [14] was 2.59 µM (inactive).

`O/N=C1\CC2(N3CCOCC3)CCC1(c1ccccc1)CC2` was tested, and the GI50 [1] was > 100 µM (inactive), the GI50 [15] was > 100 µM (inactive) and the GI50 [16] was > 100 µM (inactive). For the same compound, the GI50 [2] was > 100 µM (inactive), the GI50 [3] was > 100 µM (inactive) and the GI50 [4] was > 100 µM (inactive). For the same compound, the GI50 [5] was > 100 µM (inactive), the GI50 [6] was > 100 µM (inactive) and the GI50 [7] was > 100 µM (inactive). The GI50 [17] was > 100 µM (inactive), the GI50 [8] was > 100 µM (inactive) and the GI50 [9] was > 100 µM (inactive). For the same compound, the GI50 [10] was greater than 100 µM, the GI50 [18] was > 100 µM (inactive) and the GI50 [11] was > 100 µM (inactive). For the same compound, the GI50 [19] was > 100 µM (inactive), the GI50 [12] was > 100 µM (inactive) and the GI50 [20] was > 100 µM (inactive). For the same compound, the GI50 [14] was > 100 µM (inactive).

In the case of `O=C(/C(=C(/Br)I)c1ccccc1)c1ccccc1`, the GI50 [1] is reported as 40.1 µM (inactive), the GI50 [15] is reported as 28 µM (inactive) and the GI50 [2] is reported as 16.8 µM (inactive). For the same compound, the GI50 [3] was 29.7 µM (inactive), the GI50 [4] was 17.6 µM (inactive) and the GI50 [6] was 28.8 µM (inactive). For the same compound, the GI50 [7] was 17.8 µM (inactive), the GI50 [17] was 7.1 µM (inactive) and the GI50 [8] was 25.8 µM (inactive). The GI50 [10] was 25.1 µM, the GI50 [18] was 5.56 µM (inactive) and the GI50 [11] was 28.5 µM (inactive). The GI50 [19] was 27 µM (inactive), the GI50 [12] was 21.4 µM (inactive) and the GI50 [13] was 25.5 µM (inactive). The GI50 [20] was 14.4 µM (inactive) and the GI50 [14] was 38.5 µM (inactive).

For `CCCCNc1nc(O)c2[nH]cnc2n1`, the GI50 [1] was > 100 µM (inactive), the GI50 [2] was > 100 µM (inactive) and the GI50 [3] was > 100 µM (inactive). The GI50 [4] was > 100 µM (inactive), the GI50 [5] was > 100 µM (inactive) and the GI50 [6] was > 100 µM (inactive). For the same compound, the GI50 [7] was > 100 µM (inactive), the GI50 [17] was > 100 µM (inactive) and the GI50 [8] was > 100 µM (inactive). The GI50 [9] was 51.8 µM (inactive), the GI50 [10] was greater than 100 µM and the GI50 [18] was > 100 µM (inactive). For the same compound, the GI50 [11] was > 100 µM (inactive), the GI50 [12] was > 100 µM (inactive) and the GI50 [13] was > 100 µM (inactive). For the same compound, the GI50 [20] was > 100 µM (inactive) and the GI50 [14] was > 100 µM (inactive).
